Results reported in patent publication EP2910557A1, “Enantiopure tetrasubstituted pyrrolidines as scaffolds for proteasome inhibitors and medicinal applications thereof” (Ikerchem, S.L., priority 2014, dated 2015).

Columns and labels:
[1] = test system: U-373 MG; assay: Cancer cell growth inhibition, 72 h treatment; format: cell-based; conditions: Homo sapiens, U373 MG, Brain U-373 MG
Description: (§1) Cell culture-based assays were used to evaluate the ability of compounds of the invention to inhibit cancer cell growth.
(§2) Cells were obtained from the American Type Culture Collection (ATCC) and the European Collection of Cell Cultures. Cells were thawed in their appropriate media plus supplements (see table below). Cells were passaged at confluence by washing once in HBSS cation-free followed by a 3 minutes incubation with trypsin ([0.5 µg/ml]/EDTA [0.2 µg/ml]) (Gibco-BRL, 15400054) solution in HBSS at 37°C (except non-adherent cell lines - hematologic), and transferred to their appropriate media plus supplements. Prior to seeding at defined cell concentration, cells were recovered in medium, centrifuged, taken up in medium and counted.
(§3) All treatments were performed in triplicate. Experiments were carried out in 96-well cell culture plates (Cultek) and the cell lines seeded at the density mentioned in the table above and cultured at 37°C with 5% CO2. After 24h, media were supplemented by 100 µl/well of diluted test compound at variable final concentrations and incubated for 72 hours. Then, AlamarBlue® Reagent (Biosource DAL1100) was added to each well and incubated at 37°C for 4 hours. Relative fluorescent intensity that correlates with the number of living cells was read in a Cytofluor plate reader (Millipore) at 535/590 nm (Excitation/emission). After reading the AlamarBlue® signal, the hexosaminidase activitity was measured according to the following protocol: medium was removed and cells were washed once with PBS. 60 µl of substrate solution (p-nitrophenol-N-acetyl-beta-D-glucosaminide 7.5 mM [Sigma N-9376], sodium citrate 0.1 M, pH 5.0, 0.25% Triton X-1 00) was added to each well and incubated at 37°C for 1-2 hours; after this incubation time, a bright yellow colour appears; then, plates could be developed by adding 90 µl of developer solution (Glycine 50 mM, pH 10.4; EDTA 5 mM), and absorbance was recorded at 405 nm.
(§4) Note: In all cases assays were performed in Alamar Blue with the exception of those indicated (* = Hexosaminidase assay)

[2] = test system: A431; assay: Cancer cell growth inhibition, 72 h treatment; format: cell-based; conditions: Homo sapiens
Description: as §1, §2, §3, §4

[3] = test system: SK-BR-3; assay: Cancer cell growth inhibition, 72 h treatment; format: cell-based; conditions: Homo sapiens
Description: as §1, §2, §3, §4

[4] = test system: SK-HEP-1; assay: Cancer cell growth inhibition, 72 h treatment; format: cell-based; conditions: Homo sapiens, SK-HEP1, Liver cancer SK-HEP-1, Alamar Blue
Description: as §1, §2, §3, §4

[5] = test system: MDA-MB-468; assay: Cancer cell growth inhibition, 72 h treatment; format: cell-based; conditions: Homo sapiens, Breast cancer MDA-MB-468, Alamar Blue
Description: as §1, §2, §3, §4

[6] = test system: MDA-MB-435; assay: Cancer cell growth inhibition, 72 h treatment; format: cell-based; conditions: Homo sapiens, Melanoma MDA-MB-435, Alamar Blue
Description: as §1, §2, §3, §4

[7] = test system: COLO 205; assay: Cancer cell growth inhibition, 72 h treatment; format: cell-based; conditions: Homo sapiens, Colon cancer COLO 205, Alamar Blue
Description: as §1, §2, §3, §4

[8] = test system: HT-1080; assay: Cancer cell growth inhibition, 72 h treatment; format: cell-based; conditions: Homo sapiens
Description: as §1, §2, §3, §4

[9] = test system: LS174T; assay: Cancer cell growth inhibition, 72 h treatment; format: cell-based; conditions: Homo sapiens, Colon cancer LS174T, Alamar Blue
Description: as §1, §2, §3, §4

[10] = test system: MDA-MB-231; assay: Cancer cell growth inhibition, 72 h treatment; format: cell-based; conditions: Homo sapiens, Breast cancer MDA-MB-231, Alamar Blue
Description: as §1, §2, §3, §4

[11] = test system: SK-Mel-28; assay: Cancer cell growth inhibition, 72 h treatment; format: cell-based; conditions: Homo sapiens, Melanoma SK-Mel-28, Alamar Blue
Description: as §1, §2, §3, §4

[12] = test system: DU-145; assay: Cancer cell growth inhibition, 72 h treatment; format: cell-based; conditions: Homo sapiens, Prostate cancer DU-145, Alamar Blue
Description: as §1, §2, §3, §4

[13] = test system: HT-29; assay: Cancer cell growth inhibition, 72 h treatment; format: cell-based; conditions: Homo sapiens, Colon cancer HT-29, Alamar Blue
Description: as §1, §2, §3, §4

[14] = test system: BxPC-3; assay: Cancer cell growth inhibition, 72 h treatment; format: cell-based; conditions: Homo sapiens
Description: as §1, §2, §3, §4

[15] = test system: OVCAR-3; assay: Cancer cell growth inhibition, 72 h treatment; format: cell-based; conditions: Homo sapiens
Description: as §1, §2, §3, §4

[16] = test system: LoVo; assay: Cancer cell growth inhibition, 72 h treatment; format: cell-based; conditions: Homo sapiens, Colon cancer LoVo, Alamar Blue
Description: as §1, §2, §3, §4

[17] = test system: LNCaP; assay: Cancer cell growth inhibition, 72 h treatment; format: cell-based; conditions: Homo sapiens, Prostate cancer LNCaP, Alamar Blue
Description: as §1, §2, §3, §4

[18] = test system: SK-OV-3; assay: Cancer cell growth inhibition, 72 h treatment; format: cell-based; conditions: Homo sapiens, Ovarian cancer SK-OV-3, Alamar Blue
Description: as §1, §2, §3, §4

[19] = test system: 143b; assay: Cancer cell growth inhibition, 72 h treatment; format: cell-based; conditions: Homo sapiens, Osteosarcoma 143b, Alamar Blue
Description: as §1, §2, §3, §4

[20] = test system: MCF-7; assay: Cancer cell growth inhibition, 72 h treatment; format: cell-based; conditions: Homo sapiens, MCF7, Breast cancer MCF-7, Alamar Blue
Description: as §1, §2, §3, §4

[21] = test system: PC-3; assay: Cancer cell growth inhibition, 72 h treatment; format: cell-based; conditions: Homo sapiens, Prostate cancer PC-3, Alamar Blue
Description: as §1, §2, §3, §4

[22] = test system: HepG2; assay: Cancer cell growth inhibition, 72 h treatment; format: cell-based; conditions: Homo sapiens, Liver cancer HepG2, Alamar Blue
Description: as §1, §2, §3, §4

[23] = test system: RAMOS; assay: Cancer cell growth inhibition, 72 h treatment; format: cell-based; conditions: Homo sapiens, Hematologic RAMOS, Alamar Blue
Description: as §1, §2, §3, §4

[24] = target: T1, Human erythrocyte 20S proteasome (Homo sapiens, UniProt P28074); assay: In vitro enzymatic assay of proteasome inhibitory activity (Suc-Leu-Leu-Val-Tyr-AMC substrate); format: biochemical; conditions: for IC50: human erythrocyte 20S proteasome, 10 µM Suc-Leu-Leu-Val-Tyr-AMC, 37°C; for inhibition at 0.05 µM: Concentration 50 nM
T1 construct: Enzyme: Human erythrocyte 20S proteasome; from tissue; host or cells: human erythrocytes
Description: Example 20: In vitro enzymatic assay of proteasome inhibitory activity.
Substrate: Suc-Leu-Leu-Val-Tyr-AMC
Assay buffer: 250 mM HEPES, pH 7.5, 0.5 mM EDTA, 0.03% SDS, 0.05% Igepal CA-630.
Enzyme: Human erythrocyte 20S proteasome
In vitro proteasome inhibitory activity of the compounds of the invention is evaluated by spectrofluorimetric quantitation of AMC. Stock solutions of compounds of the invention are prepared in dimethyl sulphoxide (DMSO). Test compound and/or vehicle is preincubated with […] enzyme (human erythrocyte 20S proteasome) in modified HEPES buffer pH 7.5 and 1% final concentration of DMSO for 15 minutes at 37°C. The reaction is initiated by addition of 10 µM Suc-Leu-Leu-Val-Tyr-AMC for another 30 minutes incubation period at 37°C. Determination of the release of AMC is read spectrophotometrically (excitation, 380 nm; emission, 460 nm). IC50 values are determined by a non-linear, least squares regression analysis using MathlQTM (ID Business Solutions Ltd., UK).

[25] = A-431, Epidermoid A431, Alamar Blue
[26] = Breast cancer SK-BR-3, Alamar Blue
[27] = Fibrosarcoma HT-1080, Alamar Blue
[28] = Pancreatic cancer BxPC-3, Alamar Blue
[29] = Ovarian cancer OVCAR-3, Alamar Blue
[30] = Pancreatic cancer BxPC-3, Hexosaminidase assay (*)
[31] = Ovarian cancer OVCAR-3, Hexosaminidase assay (*)

SMILES | EC50 [2, 25] | EC50 [3, 26] | EC50 [4] | EC50 [5] | EC50 [6] | EC50 [7] | EC50 [9] | EC50 [10] | EC50 [11] | EC50 [12] | EC50 [13] | EC50 [16] | EC50 [17] | EC50 [18] | EC50 [19] | EC50 [20] | EC50 [21] | EC50 [22] | EC50 [23] | IC50 [24] | also measured
CC(C)C[C@H](NC(=O)[C@@H]1N[C@H](c2ccccc2)[C@@H]([N+](=O)[O-])[C@@H]1c1ccccc1)B(O)O [Example 1, (R)-3-methyl-1-((2R,3R,4S,5R)-4-nitro-3,5-diphenylpyrrolidine-2-carboxamido)butylboronic acid] | 970 nM | 1200 nM | 490 nM | 4100 nM | 1000 nM | 11000 nM | 720 nM | 5100 nM | 1300 nM | 1900 nM | 3500 nM | 6700 nM | 390 nM | 4100 nM | 5000 nM | 700 nM | 1500 nM | 1400 nM | 2400 nM | 39 nM | EC50 ([1]; Alamar Blue): 44000 nM; EC50 [8, 27]: 1700 nM; EC50 [14, 28]: 4600 nM; EC50 [15, 29]: 740 nM; inhibition at 0.1 µM ([24]; Concentration 100 nM): 73%
CC(C)C[C@H](NC(=O)[C@H]1N[C@@H](c2ccccc2)[C@@H]([N+](=O)[O-])[C@@H]1c1ccccc1)B(O)O [Example 4, (R)-3-methyl-1-((2S,3R,4S,5S)-4-nitro-3,5-diphenylpyrrolidine-2-carboxamido)butylboronic acid] | 970 nM | 760 nM | 290 nM | 790 nM | 370 nM | 3800 nM | 550 nM | 2100 nM | 780 nM | 1200 nM | 1500 nM | 3090 nM | 110 nM | 2200 nM | 2000 nM | 23000 nM | 2300 nM | 380 nM | 1000 nM | 46 nM | EC50 ([1]; Alamar Blue): 7300 nM; EC50 [8, 27]: 1700 nM; EC50 [14, 28]: 2900 nM; EC50 [15, 29]: 890 nM; inhibition at 0.05 µM [24]: 51%
CC(C)C[C@H](NC(=O)[C@@H]1N[C@H](c2ccccc2)[C@@H]([N+](=O)[O-])[C@@H]1c1ccc(F)cc1)B(O)O [Example 6, (R)-1-((2R,3R,4S,5R)-3-(4-fluorophenyl)-4-nitro-5-phenylpyrrolidine-2-carboxamido)-3-methylbutylboronic acid] | 100 nM | – | 1900 nM | 2200 nM | 1100 nM | 2400 nM | 600 nM | 11000 nM | 13000 nM | 3500 nM | 27000 nM | 15000 nM | 1800 nM | 13000 nM | 1900 nM | 1900 nM | 7100 nM | 3100 nM | 2400 nM | 17 nM | EC50 ([1]; Hexosaminidase assay (*)): 17000 nM; EC50 ([3]; Breast cancer SK-BR-3, Hexosaminidase assay (*)): 6000 nM; EC50 ([8]; Fibrosarcoma HT-1080, Hexosaminidase assay (*)): 16000 nM; EC50 [14, 30]: 5800 nM; EC50 [15, 31]: 2200 nM; inhibition at 0.05 µM [24]: 70%
CC(C)C[C@H](NC(=O)[C@@H]1N[C@H](c2ccccc2)[C@@H]([N+](=O)[O-])[C@@H]1c1cccs1)B(O)O [Example 10, (R)-3-methyl-1-((2R,3R,4S,5R)-4-nitro-5-phenyl-3-(thiophen-2-yl)pyrrolidine-2-carboxamido)butylboronic acid] | – | 440 nM | 490 nM | 320 nM | 310 nM | 310 nM | 140 nM | 2800 nM | 1600 nM | 910 nM | 3500 nM | 2500 nM | 380 nM | 1300 nM | 290 nM | 490 nM | 1200 nM | 560 nM | 530 nM | 12 nM | EC50 ([1]; Hexosaminidase assay (*)): 2800 nM; EC50 ([2]; A-431, Epidermoid A431, Hexosaminidase assay (*)): 30 nM; EC50 [8, 27]: 1400 nM; EC50 [14, 30]: 1500 nM; EC50 [15, 31]: 860 nM; inhibition at 0.05 µM [24]: 79%
